{
  "source": "paper PMC7367873",
  "about": "“Dissecting the sequence determinants for dephosphorylation by the catalytic subunits of phosphatases PP1 and PP2A” (Nature Communications, 2020)",
  "key": {"[1]": {"system": "GFP-14-3-3β and its binding proteins", "test": "GFP-14-3-3β co-IP with LC-MS/MS label-free quantification, untreated versus PP1c-treated", "parameters": "species or system human"}, "[2]": {"system": "GFP-14-3-3β", "test": "GFP-14-3-3β co-IP with LC-MS/MS, untreated GFP-14-3-3β versus GFP control (14-3-3 interactome)", "format": "binding, human"}, "[3]": {"details": "GFP-14-3-3β co-IP LC-MS/MS, PP1 vs untreated, student's t-test, label-free quantification, 3 replicates each"}, "[4]": {"details": "GFP-14-3-3β co-IP LC-MS/MS, untreated vs GFP, student's t-test, label-free quantification, 3 replicates each"}, "[5]": {"details": "PP1 vs untreated, LFQ intensities, replicates 1-3"}, "[6]": {"details": "untreated vs GFP, LFQ intensities, replicates 1-3"}, "[7]": {"details": "log2 difference, pairwise comparison PP1 vs untreated, label-free quantification, 3 replicates each"}, "[8]": {"details": "log2 difference, pairwise comparison untreated vs GFP, label-free quantification, 3 replicates each"}, "[9]": {"details": "PP1 vs untreated, LFQ intensities, 3 replicates each"}, "[10]": {"details": "untreated vs GFP, LFQ intensities, 3 replicates each"}, "[11]": {"details": "pairwise comparison PP1 vs untreated, student's t-test, 3 replicates each, LC-MS/MS label-free quantification"}, "[12]": {"details": "pairwise comparison untreated GFP-14-3-3β vs GFP, student's t-test, 3 replicates each, LC-MS/MS label-free quantification"}, "[13]": {"details": "PP1 vs untreated, label-free quantification"}, "[14]": {"details": "untreated vs GFP, label-free quantification"}, "[15]": {"details": "pairwise comparison PP1 vs untreated"}, "[16]": {"details": "pairwise comparison untreated vs GFP"}},
  "data": [
    {"substance": "RAD50", "values": [
      {"measurement": "Difference (log2), PP1 vs untreated", "setting": "[1]; [3]", "result": -0.3723, "unit": "log2"},
      {"measurement": "Difference (log2), untreated vs GFP", "setting": "[2]; [4]", "result": 0.4724, "unit": "log2"}
    ]},
    {"substance": "RANBP2", "values": [
      {"measurement": "Difference (log2), PP1 vs untreated", "setting": "[1]; [5]", "result": -2.029, "unit": "log2"},
      {"measurement": "Difference (log2), untreated vs GFP", "setting": "[2]; [6]", "result": 2.443, "unit": "log2"}
    ]},
    {"substance": "RFC3", "values": [
      {"measurement": "Difference (log2), PP1 vs untreated", "setting": "[1]; [7]", "result": 1.3203},
      {"measurement": "Difference (log2), untreated vs GFP", "setting": "[2]; [8]", "result": -0.5439}
    ]},
    {"substance": "RFC5", "values": [
      {"measurement": "Difference (log2), PP1 vs untreated", "setting": "[1]; [7]", "result": 1.3455},
      {"measurement": "Difference (log2), untreated vs GFP", "setting": "[2]; [8]", "result": -0.3031}
    ]},
    {"substance": "RICTOR", "values": [
      {"measurement": "Difference (log2), PP1 vs untreated", "setting": "[1]; [5]", "result": -0.7631, "unit": "log2"},
      {"measurement": "Difference (log2), untreated vs GFP", "setting": "[2]; [6]", "result": 3.3487, "unit": "log2"}
    ]},
    {"substance": "RNF5", "values": [
      {"measurement": "Difference (log2), PP1 vs untreated", "setting": "[1]; [3]", "result": -0.2892, "unit": "log2"},
      {"measurement": "Difference (log2), untreated vs GFP", "setting": "[2]; [4]", "result": 0.3906, "unit": "log2"}
    ]},
    {"substance": "RNF213", "values": [
      {"measurement": "Difference (log2), PP1 vs untreated", "setting": "[1]; [9]", "result": 0.6499, "unit": "log2"},
      {"measurement": "Difference (log2), untreated vs GFP", "setting": "[2]; [10]", "result": 0.8982, "unit": "log2"}
    ]},
    {"substance": "RPA3", "values": [
      {"measurement": "Difference (log2), PP1 vs untreated", "setting": "[1]; [5]", "result": -1.739, "unit": "log2"},
      {"measurement": "Difference (log2), untreated vs GFP", "setting": "[2]; [6]", "result": -0.7925, "unit": "log2"}
    ]},
    {"substance": "SEC16A", "values": [
      {"measurement": "Difference (log2), PP1 vs untreated", "setting": "[1]; [5]", "result": -1.037, "unit": "log2"},
      {"measurement": "Difference (log2), untreated vs GFP", "setting": "[2]; [6]", "result": 2.809, "unit": "log2"}
    ]},
    {"substance": "SFN", "values": [
      {"measurement": "Difference (log2), PP1 vs untreated", "setting": "[1]; [11]", "result": -4.908, "unit": "log2"},
      {"measurement": "Difference", "setting": "[2]; UntrtedvsGFP, Perseus raw output, LFQ intensity difference", "result": 10.1517},
      {"measurement": "Difference (log2), untreated vs GFP", "setting": "[2]; [12]", "result": 10.1517, "unit": "log2"}
    ]},
    {"substance": "SHROOM3", "values": [
      {"measurement": "Difference (log2), PP1 vs untreated", "setting": "[1]; [11]", "result": -2.387, "unit": "log2"},
      {"measurement": "Difference (log2), untreated vs GFP", "setting": "[2]; [12]", "result": 4.814, "unit": "log2"}
    ]},
    {"substance": "SLC7A5", "values": [
      {"measurement": "Difference (log2), PP1 vs untreated", "setting": "[1]; [3]", "result": -0.2534, "unit": "log2"},
      {"measurement": "Difference (log2), untreated vs GFP", "setting": "[2]; [4]", "result": 0.7726, "unit": "log2"}
    ]},
    {"substance": "SMARCA5", "values": [
      {"measurement": "Difference (log2), PP1 vs untreated", "setting": "[1]; [5]", "result": -1.929, "unit": "log2"},
      {"measurement": "Difference (log2), untreated vs GFP", "setting": "[2]; [6]", "result": 3.229, "unit": "log2"}
    ]},
    {"substance": "SMN1", "values": [
      {"measurement": "Difference (log2), PP1 vs untreated", "setting": "[1]; [3]", "result": -0.1766, "unit": "log2"},
      {"measurement": "Difference (log2), untreated vs GFP", "setting": "[2]; [4]", "result": 1.023, "unit": "log2"}
    ]},
    {"substance": "SNRNP200", "values": [
      {"measurement": "Difference (log2), PP1 vs untreated", "setting": "[1]; [3]", "result": -0.2654, "unit": "log2"},
      {"measurement": "Difference (log2), untreated vs GFP", "setting": "[2]; [4]", "result": 1.652, "unit": "log2"}
    ]},
    {"substance": "SOGA1", "values": [
      {"measurement": "Difference (log2), PP1 vs untreated", "setting": "[1]; [13]", "result": 0.818, "unit": "log2"},
      {"measurement": "Difference (log2), untreated vs GFP", "setting": "[2]; [14]", "result": -0.02242, "unit": "log2"}
    ]},
    {"substance": "SPTAN1", "values": [
      {"measurement": "Difference (log2), PP1 vs untreated", "setting": "[1]; [11]", "result": -2.033, "unit": "log2"},
      {"measurement": "Difference (log2), untreated vs GFP", "setting": "[2]; [12]", "result": 0.5148, "unit": "log2"}
    ]},
    {"substance": "SPTBN1", "values": [
      {"measurement": "Difference (log2), PP1 vs untreated", "setting": "[1]; [5]", "result": -1.61, "unit": "log2"},
      {"measurement": "Difference (log2), untreated vs GFP", "setting": "[2]; [6]", "result": 0.3641, "unit": "log2"}
    ]},
    {"substance": "SQSTM1", "values": [
      {"measurement": "Difference (log2), PP1 vs untreated", "setting": "[1]; [3]", "result": -0.4375, "unit": "log2"},
      {"measurement": "Difference (log2), untreated vs GFP", "setting": "[2]; [4]", "result": 0.1051, "unit": "log2"}
    ]},
    {"substance": "SRGAP1", "values": [
      {"measurement": "Difference (log2), PP1 vs untreated", "setting": "[1]; [11]", "result": -5.178, "unit": "log2"},
      {"measurement": "Difference (log2), untreated vs GFP", "setting": "[2]; [12]", "result": 5.319, "unit": "log2"}
    ]},
    {"substance": "SRGAP2", "values": [
      {"measurement": "Difference (log2), PP1 vs untreated", "setting": "[1]; [11]", "result": -5.683, "unit": "log2"},
      {"measurement": "Difference (log2), untreated vs GFP", "setting": "[2]; [12]", "result": 5.241, "unit": "log2"}
    ]},
    {"substance": "SRSF1", "values": [
      {"measurement": "Difference (log2), PP1 vs untreated", "setting": "[1]; [11]", "result": -3.492, "unit": "log2"},
      {"measurement": "Difference (log2), untreated vs GFP", "setting": "[2]; [12]", "result": 4.313, "unit": "log2"}
    ]},
    {"substance": "SRSF3", "values": [
      {"measurement": "Difference (log2), PP1 vs untreated", "setting": "[1]; [11]", "result": -2.154, "unit": "log2"},
      {"measurement": "Difference (log2), untreated vs GFP", "setting": "[2]; [12]", "result": 2.78, "unit": "log2"}
    ]},
    {"substance": "SSRP1", "values": [
      {"measurement": "Difference (log2), PP1 vs untreated", "setting": "[1]; [13]", "result": 0.7419, "unit": "log2"},
      {"measurement": "Difference (log2), untreated vs GFP", "setting": "[2]; [14]", "result": 1.339, "unit": "log2"}
    ]},
    {"substance": "STOM", "values": [
      {"measurement": "Difference (log2), PP1 vs untreated", "setting": "[1]; [15]", "result": 0.02924, "unit": "log2"},
      {"measurement": "Difference (log2), untreated vs GFP", "setting": "[2]; [16]", "result": -0.5691, "unit": "log2"}
    ]},
    {"substance": "SUPT16H", "values": [
      {"measurement": "Difference (log2), PP1 vs untreated", "setting": "[1]; [15]", "result": 0.1332, "unit": "log2"},
      {"measurement": "Difference (log2), untreated vs GFP", "setting": "[2]; [16]", "result": 0.2233, "unit": "log2"}
    ]},
    {"substance": "SVIL", "values": [
      {"measurement": "Difference (log2), PP1 vs untreated", "setting": "[1]; [13]", "result": 0.892, "unit": "log2"},
      {"measurement": "Difference (log2), untreated vs GFP", "setting": "[2]; [14]", "result": -1.069, "unit": "log2"}
    ]},
    {"substance": "SYNCRIP", "values": [
      {"measurement": "Difference (log2), PP1 vs untreated", "setting": "[1]; [15]", "result": 0.2079, "unit": "log2"},
      {"measurement": "Difference (log2), untreated vs GFP", "setting": "[2]; [16]", "result": 0.5804, "unit": "log2"}
    ]},
    {"substance": "TAF15", "values": [
      {"measurement": "Difference (log2), PP1 vs untreated", "setting": "[1]; [5]", "result": -1.048, "unit": "log2"},
      {"measurement": "Difference (log2), untreated vs GFP", "setting": "[2]; [6]", "result": 0.6755, "unit": "log2"}
    ]},
    {"substance": "TECR", "values": [
      {"measurement": "Difference (log2), PP1 vs untreated", "setting": "[1]; [9]", "result": 0.5371, "unit": "log2"},
      {"measurement": "Difference (log2), untreated vs GFP", "setting": "[2]; [10]", "result": -0.1984, "unit": "log2"}
    ]},
    {"substance": "TFAM", "values": [
      {"measurement": "Difference (log2), PP1 vs untreated", "setting": "[1]; [9]", "result": 0.5786, "unit": "log2"},
      {"measurement": "Difference (log2), untreated vs GFP", "setting": "[2]; [10]", "result": -2.855, "unit": "log2"}
    ]},
    {"substance": "TIMM50", "values": [
      {"measurement": "Difference (log2), PP1 vs untreated", "setting": "[1]; [3]", "result": -0.2989, "unit": "log2"},
      {"measurement": "Difference (log2), untreated vs GFP", "setting": "[2]; [4]", "result": 1.085, "unit": "log2"}
    ]}
  ]
}
